What was measured:
Type in all cases: cell-based
[1] = tested on: primary human total T-cells; assay: T-cell activation assessed by CD69 expression
Text: (§1) Peripheral blood mononuclear cells (PBMC) were obtained either: 1) by using Ficoll-Paque™ (GE Healthcare) for separation of peripheral blood hematopoietic cells from buffy coats of healthy human donors; or 2) directly from FeukoPak donations. Total human primary T-cells were isolated from the PMBCs utilizing negative selection with commercial kits following the manufacturer's protocol (Miltenyi Catalog #130-096-535 (i.e., cocktail of antibodies against surface markers CD14, CD15, CD16, CD19, CD34, CD36, CD56, CD123 and CD235a are incubated with the PBMCs before passing the samples by magnetic beads for removal of cells expressing those surface markers) or StemCells Catalog #17951) to yield >95% CD3+ cells as assessed by flow cytometry. For measurement of cell proliferation, cells were labeled with Cell Trace Violet (Invitrogen) following manufacturer's protocol prior to activation by stimulation with anti-CD3 antibody alone or in combination with anti-CD28 antibody. The Cbl-b inhibitor was added to 1×10^5 cells per well at multiple concentrations (e.g., 10 μM, 1.11 μM, or 0.123 μM) with a final DMSO concentration of <0.1%. The plate was incubated for one hour at 37° C. in 5% CO2. Following incubation with the Cbl-b inhibitor, primary human total T-cells were stimulated with either plate bound anti-CD3 antibody (OKT3) alone or plate bound anti-CD3 antibody (OKT3) with soluble anti-CD28 antibody (28.2) (Life Technologies). To prepare plates with plate bound anti-CD3 antibody (OKT3), 96-well round bottom tissue culture plates were coated with 100 μl of anti-CD3 antibody (OKT3) at 10 μg/mL for 4 hours at 37° C. 5% CO2 in phosphate buffered saline (PBS). The plates were washed with PBS prior to adding the cells with or without soluble anti-CD28 antibody (28.2) to each well at a final concentration of 5 μg/mL. Cells were stimulated for 48 hours prior to harvesting the cell free supernatant and staining the cell population for surface marker assessment by flow cytometry. Supernatants were analyzed for cytokine secretion (e.g., GM-CSF, IFNγ and TNFα) by ELISA (R&D Systems, Peprotech or Life Technologies) or Luminex multiplex kits (Procarta Life Technologies) following manufacturer's protocol. Cells were stained with anti-CD69 (BD Biosciences) to assess levels of surface markers of activation. Proliferation was measured by flow cytometry and data was analyzed with FlowJo v7.6.5 or v10. Readouts were reported as fold change over baseline. In some embodiments, baseline was the measurement obtained from total human T-cells stimulated with anti-CD3 antibody alone, wherein the cells were not incubated with a Cbl-b inhibitor. In some embodiments, baseline was the measurement obtained from total human T-cells stimulated with anti-CD3 antibody and anti-CD28 antibody, where the cells were not incubated with a Cbl-b inhibitor.
(§2) Cbl-b inhibitors were tested to determine their ability to induce or enhance secretion of cytokines from T-cells (e.g., GM-CSF, IFNγ and TNFα) and/or surface expression of cell surface markers on T-cells (e.g., CD69) that is indicative of T-cell activation. Cbl-b inhibitors were also tested to determine their ability to induce or enhance T-cell proliferation. Cbl-b inhibitors were tested for their effects on T-cell activation in the presence of costimulation and where conditions were suboptimal for priming.
(§3) Readouts for T-cell activation were reported as fold change over baseline. Baseline for this study was the measurement obtained from total human T-cells stimulated with anti-CD3 antibody alone or anti-CD3 antibody in combination with soluble anti-CD28 antibody, where the cells were not incubated with a Cbl-b inhibitor. For T-cells stimulated with anti-CD3/anti-CD28 or with anti-CD3 alone changes greater than 1,2-fold over baseline for % positive CD69 staining and greater than 2-fold over baseline for % total proliferating cells were considered a significant and positive response (Table 4a). […]

[2] = tested on: primary human total T-cells; assay: T-cell activation assessed by cell proliferation (Cell Trace Violet)
Text: as §1, §2, §3

[3] = tested on: primary human total T-cells; assay: T-cell activation assessed by cytokine secretion (GM-CSF, IFNγ, TNFα)
Text: as §1, §2, §3

[4] = CD3/CD28 stimulation, CD4 T-cells, read-out: % CD69+ (CD4)
[5] = CD3/CD28 stimulation, CD8 T-cells, read-out: % CD69+ (CD8)
[6] = CD3 alone stimulation, CD4 T-cells, read-out: % CD69+ (CD4)
[7] = CD3 alone stimulation, CD8 T-cells, read-out: % CD69+ (CD8)
[8] = CD3/CD28 stimulation, CD4 T-cells, read-out: % CP (cell proliferation) (CD4)
[9] = CD3/CD28 stimulation, CD8 T-cells, read-out: % CP (cell proliferation) (CD8)
[10] = CD3 alone stimulation, CD8 T-cells, read-out: % CP (cell proliferation) (CD8)
[11] = CD3/CD28 stimulation, read-out: GM-CSF secretion
[12] = CD3/CD28 stimulation, read-out: IFNγ secretion
[13] = CD3/CD28 stimulation, read-out: TNFα secretion
[14] = CD3 alone stimulation, read-out: GM-CSF secretion
[15] = CD3 alone stimulation, read-out: IFNγ secretion
[16] = CD3 alone stimulation, read-out: TNFα secretion

SMILES: C[C@H](Cc1nncn1C)c1cccc(N2Cc3c(cc(CN4CC[C@](C)(O)C4)cc3C(F)(F)F)C2=O)c1 [Compound 398, 6-(((S)-3-hydroxy-3-methylpyrrolidin-1-yl)methyl)-2-(3-((R)-1-(4-methyl-4H-1,2,4-triazol-3-yl)propan-2-yl)phenyl)-4-(trifluoromethyl)isoindolin-1-one]
- fold induction at 1.11 µM [1, 4]: 1.4 to 1.6
- fold induction at 10 µM [1, 4]: 1.4 to 1.6
- fold induction at 1.11 µM [1, 5]: 1.2 to 1.4
- fold induction at 10 µM [1, 5]: 1.2 to 1.4
- fold induction at 1.11 µM [1, 6]: > 1.6
- fold induction at 10 µM [1, 6]: > 1.6
- fold induction at 1.11 µM [1, 7]: 1.2 to 1.4
- fold induction at 10 µM [1, 7]: 1.4 to 1.6
- fold induction at 1.11 µM [2, 8]: > 4
- fold induction at 10 µM [2, 8]: > 4
- fold induction at 1.11 µM [2, 9]: 3.01 to 4
- fold induction at 10 µM [2, 9]: > 4
- fold induction at 1.11 µM [2, 10]: > 4
- fold induction at 10 µM [2, 10]: > 4
- fold induction at 1.11 µM [3, 11]: 2.01 to 4
- fold induction at 1.11 µM [3, 12]: 3.01 to 4
- fold induction at 1.11 µM [3, 13]: 2.01 to 4
- fold induction at 10 µM [3, 11]: > 4
- fold induction at 10 µM [3, 12]: > 4
- fold induction at 10 µM [3, 13]: 2.01 to 4
- fold induction at 1.11 µM [3, 14]: 2.01 to 4
- fold induction at 1.11 µM [3, 15]: < 2
- fold induction at 1.11 µM [3, 16]: ≤ 1.5
- fold induction at 10 µM [3, 14]: > 4
- fold induction at 10 µM [3, 15]: < 2
- fold induction at 10 µM [3, 16]: 2.01 to 4

SMILES: C[C@H](Cc1nncn1C)c1cccc(N2Cc3c(cc(CN4CC[C@H](F)C4)cc3C(F)(F)F)C2=O)c1 [Compound 399, 6-(((S)-3-fluoropyrrolidin-1-yl)methyl)-2-(3-((R)-1-(4-methyl-4H-1,2,4-triazol-3-yl)propan-2-yl)phenyl)-4-(trifluoromethyl)isoindolin-1-one]
- fold induction at 1.11 µM [1, 4]: > 1.6
- fold induction at 10 µM [1, 4]: > 1.6
- fold induction at 1.11 µM [1, 5]: 1.2 to 1.4
- fold induction at 10 µM [1, 5]: 1.2 to 1.4
- fold induction at 1.11 µM [1, 6]: > 1.6
- fold induction at 10 µM [1, 6]: > 1.6
- fold induction at 1.11 µM [1, 7]: 1.4 to 1.6
- fold induction at 10 µM [1, 7]: 1.4 to 1.6
- fold induction at 1.11 µM [2, 8]: > 4
- fold induction at 10 µM [2, 8]: > 4
- fold induction at 1.11 µM [2, 9]: > 4
- fold induction at 10 µM [2, 9]: > 4
- fold induction at 1.11 µM [2, 10]: > 4
- fold induction at 10 µM [2, 10]: > 4
- fold induction at 1.11 µM [3, 11]: > 4
- fold induction at 1.11 µM [3, 12]: > 4
- fold induction at 1.11 µM [3, 13]: 2.01 to 4
- fold induction at 10 µM [3, 11]: > 4
- fold induction at 10 µM [3, 12]: > 4
- fold induction at 10 µM [3, 13]: 2.01 to 4
- fold induction at 1.11 µM [3, 14]: 2.01 to 4
- fold induction at 1.11 µM [3, 15]: 3.01 to 4
- fold induction at 1.11 µM [3, 16]: 2.01 to 4
- fold induction at 10 µM [3, 14]: > 4
- fold induction at 10 µM [3, 15]: > 4
- fold induction at 10 µM [3, 16]: 1.51 to 2

SMILES: C[C@@H](c1cc2c(c(C(F)(F)F)c1)CN(c1cccc(C3(Cc4nncn4C)COC3)c1)C2=O)N1CC[C@H](F)C1 [Compound 412, 6-((S)-1-((S)-3-fluoropyrrolidin-1-yl)ethyl)-2-(3-(3-((4-methyl-4H-1,2,4-triazol-3-yl)methyl)oxetan-3-yl)phenyl)-4-(trifluoromethyl)isoindolin-1-one]
- fold induction at 1.11 µM [1, 4]: 1.4 to 1.6
- fold induction at 10 µM [1, 4]: 1.4 to 1.6
- fold induction at 1.11 µM [1, 5]: 1.2 to 1.4
- fold induction at 10 µM [1, 5]: 1.2 to 1.4
- fold induction at 1.11 µM [1, 6]: > 1.6
- fold induction at 10 µM [1, 6]: > 1.6
- fold induction at 1.11 µM [1, 7]: 1.4 to 1.6
- fold induction at 10 µM [1, 7]: 1.4 to 1.6
- fold induction at 1.11 µM [2, 8]: > 4
- fold induction at 10 µM [2, 8]: > 4
- fold induction at 1.11 µM [2, 9]: > 4
- fold induction at 10 µM [2, 9]: > 4
- fold induction at 1.11 µM [2, 10]: > 4
- fold induction at 10 µM [2, 10]: > 4
- fold induction at 1.11 µM [3, 11]: > 4
- fold induction at 1.11 µM [3, 12]: > 4
- fold induction at 1.11 µM [3, 13]: 2.01 to 4
- fold induction at 10 µM [3, 11]: > 4
- fold induction at 10 µM [3, 12]: > 4
- fold induction at 10 µM [3, 13]: > 4
- fold induction at 1.11 µM [3, 14]: > 4
- fold induction at 1.11 µM [3, 15]: 3.01 to 4
- fold induction at 1.11 µM [3, 16]: 1.51 to 2
- fold induction at 10 µM [3, 14]: > 4
- fold induction at 10 µM [3, 15]: > 4
- fold induction at 10 µM [3, 16]: 2.01 to 4

SMILES: C[C@H](c1cc2c(c(C(F)(F)F)c1)CN(c1cccc(C3(Cc4nncn4C)COC3)c1)C2=O)N1CC[C@H](F)C1 [Compound 413, 6-((R)-1-((S)-3-fluoropyrrolidin-1-yl)ethyl)-2-(3-(3-((4-methyl-4H-1,2,4-triazol-3-yl)methyl)oxetan-3-yl)phenyl)-4-(trifluoromethyl)isoindolin-1-one]
- fold induction at 1.11 µM [1, 4]: 1.4 to 1.6
- fold induction at 10 µM [1, 4]: > 1.6
- fold induction at 1.11 µM [1, 5]: 1.2 to 1.4
- fold induction at 10 µM [1, 5]: 1.2 to 1.4
- fold induction at 1.11 µM [1, 6]: 1.4 to 1.6
- fold induction at 10 µM [1, 6]: > 1.6
- fold induction at 1.11 µM [1, 7]: 1.2 to 1.4
- fold induction at 10 µM [1, 7]: 1.4 to 1.6
- fold induction at 1.11 µM [2, 8]: > 4
- fold induction at 10 µM [2, 8]: > 4
- fold induction at 1.11 µM [2, 9]: 3.01 to 4
- fold induction at 10 µM [2, 9]: > 4
- fold induction at 1.11 µM [2, 10]: 3.01 to 4
- fold induction at 10 µM [2, 10]: > 4
- fold induction at 1.11 µM [3, 11]: 2.01 to 4
- fold induction at 1.11 µM [3, 12]: < 2
- fold induction at 1.11 µM [3, 13]: 2.01 to 4
- fold induction at 10 µM [3, 11]: > 4
- fold induction at 10 µM [3, 12]: 3.01 to 4
- fold induction at 10 µM [3, 13]: 2.01 to 4
- fold induction at 1.11 µM [3, 14]: 1.51 to 2
- fold induction at 1.11 µM [3, 15]: 2.01 to 3
- fold induction at 1.11 µM [3, 16]: 1.51 to 2
- fold induction at 10 µM [3, 14]: 2.01 to 4
- fold induction at 10 µM [3, 15]: > 4
- fold induction at 10 µM [3, 16]: 1.51 to 2

SMILES: Cn1cnnc1CC1(c2cccc(N3Cc4c(cc(CN5CC(F)C5)cc4C(F)(F)F)C3=O)c2)COC1 [Compound 415, 6-((3-fluoroazetidin-1-yl)methyl)-2-(3-(3-((4-methyl-4H-1,2,4-triazol-3-yl)methyl)oxetan-3-yl)phenyl)-4-(trifluoromethyl)isoindolin-1-one]
- fold induction at 1.11 µM [1, 4]: 1.2 to 1.4
- fold induction at 10 µM [1, 4]: 1.4 to 1.6
- fold induction at 1.11 µM [1, 5]: 1.2 to 1.4
- fold induction at 10 µM [1, 5]: 1.2 to 1.4
- fold induction at 1.11 µM [1, 6]: > 1.6
- fold induction at 10 µM [1, 6]: > 1.6
- fold induction at 1.11 µM [1, 7]: 1.2 to 1.4
- fold induction at 10 µM [1, 7]: 1.4 to 1.6
- fold induction at 1.11 µM [2, 8]: > 4
- fold induction at 10 µM [2, 8]: > 4
- fold induction at 1.11 µM [2, 9]: 3.01 to 4
- fold induction at 10 µM [2, 9]: > 4
- fold induction at 1.11 µM [2, 10]: > 4
- fold induction at 10 µM [2, 10]: > 4
- fold induction at 1.11 µM [3, 11]: 2.01 to 4
- fold induction at 1.11 µM [3, 12]: 3.01 to 4
- fold induction at 1.11 µM [3, 13]: 2.01 to 4
- fold induction at 10 µM [3, 11]: > 4
- fold induction at 10 µM [3, 12]: > 4
- fold induction at 10 µM [3, 13]: 2.01 to 4
- fold induction at 1.11 µM [3, 14]: 2.01 to 4
- fold induction at 1.11 µM [3, 15]: 2.01 to 3
- fold induction at 1.11 µM [3, 16]: 1.51 to 2
- fold induction at 10 µM [3, 14]: > 4
- fold induction at 10 µM [3, 15]: > 4
- fold induction at 10 µM [3, 16]: 1.51 to 2
